Assay results reported in patent EP4458804A1, “METHOD FOR PRODUCING AN OBJECT, PHENALEN-1-ONE COMPOUND AND USE THEREOF” (TriOptoTec GmbH, priority 2023, dated 2024).

Assays:
[1] = Two-component system (kit of parts): impregnation of TPU films, visual colouring and resistance to rubbing/washing (Beispiel 6a/6b); format: physicochemical; settings: TPU Folien; 2K-System Beispiel 6a (Aceton/Isopropanol)
Description: Um eine Mehrkomponenten-System bereitzustellen, bei dem vorzugsweise flüchtigere Hilfskomponenten, die gegebenenfalls regelmäßiger im Prozess ergänzt werden müssen, in einer separaten Komponente bereitgestellt werden können, wurde zunächst folgendes 2K-System getestet.
Grundkomponente (A): Eine Mischung aus 40,0% w/w Aceton, 30,0% w/w Isopropanol und […] w/w Wasser wurden homogen vermengt. Die Mischung war dicht verschlossen > 12 Monate bei Raumtemperatur lagerbar.
Zusatzkomponente (B): Eine Mischung aus 3,0% w/w Phenoxyethanol, 3,0% w/w EDTA und 0,1 bis 2,0 % Photokatalysator in Wasser wurden homogen verrührt. Die Mischung war dicht verschlossen in dunklen Flaschen > 6 Monate bei Raumtemperatur lagerbar.
Beide Lösungen wurden vor dem Prozess zu gleichen Teilen gemischt, gefolgt von einer 1:5 Verdünnung mit Wasser. Nach guter Durchmischung war die Lösung gebrauchsfertig.
Bei F-64a und F-73 war eine schwache Gelb- bzw.
Grundkomponente (A) enthielt eine Mischung aus 30,0% w/w Dimethylsuccinat, 33,0% w/w 1,2-Propandiol, 12,0% w/w Tween 20 und 25,0 % Wasser.
Zusatzkomponente (B) enthielt eine Mischung aus 2,0 Gew.-% Phenoxyethanol, 2,0 Gew.-% EDTA und 0,1 Gew.-% bis 1,6 Gew.-% Photokatalysator, jeweils bezogen auf das Gesamtgewicht der Zusatzkomponente (B), wobei die entsprechenden Bestandteile in Wasser gelöst wurden und anschließend homogen verrührt wurden.
Die Komponenten wurden vor Gebrauch im Verhältnis A zu B 2:1 gemischt, gefolgt von einer 1:1 Verdünnung mit Wasser. Nach guter Durchmischung war die Lösung gebrauchsfertig.

[2] = Washability test C following DIN EN ISO 11998, 200 sponge cycles with disinfectant solution (Beispiel 10 C); format: physicochemical; settings: TPU, Rezeptur 1 nach Beispiel 2
Method: Der Test wurde in Anlehnung an die DIN EN ISO 11998:2006-10 ("Beschichtungsstoffe - Bestimmung der Nassabriebbeständigkeit und der Reinigungsfähigkeit von Beschichtungen (ISO 11998:2006)"; Ausgabedatum: 2006-10) durchgeführt, um das Auswaschen der verschiedenen Farbstoffe in den Kunststofffolien nach mechanischer Belastung zu beurteilen.
Hierzu wurden 200 Zyklen mit einem Anpressdruck von 135g angewendet. Es wurde ein Schwamm mit 4,0 mL Probelösung vorbereitet, die zu testende Folie eingespannt und der Schwamm aufgebracht. 200 Zyklen entsprachen dabei circa 5 min Kontaktzeit des Schwamms und der Oberfläche. Nach dem Test wurde die Folie entnommen und im UV-VIS Spektrometer vermessen, um die ausgewaschene Menge an Farbstoff zu bestimmen.
Der jeweils gemessene Wert vor dem Test und nach Abschluss der 200 Zyklen wurde verglichen und daraus ein prozentualer Verlust ermittelt.
Vorbereitet wurde die Folie nach Beispiel 2. Die zu verwendete Probelösung entsprach 5 Gew.-% Incidin Plus Lösung, bezogen auf das Gesamtgewicht der Probelösung.
Incidin Pro, der Firma ECOLAB Deutschland GmbH (Monheim), ist ein flüssiges Konzentrat, das sich zur Reinigung und Desinfektion medizinischer Geräte und Flächen in Einrichtungen des Gesundheitswesens angewendet wird.
Der Test ermittelt somit den nach wiederholtem flächigem Abwischen mit einem Desinfektionsmittel aus einer behandelten Oberfläche ausgetragenen Photokatalysator.

verschiedene Virusstämme = test: Antiviral activity of impregnated films following ISO 21702 with illumination (Beispiel 17); settings: TPU film, Rezeptur 1, 1 mM, light 20mW/cm^2 for 83 min
[3] = Leaching test A: screening immersion 24 h, UV-VIS of supernatant (Beispiel 10 A); format: physicochemical; design: Abs. nach Auswaschen: unit not given here; settings: for Berechneter Verlust in %: Rezeptur 1 nach Beispiel 1; for Abs. nach Auswaschen: Rezeptur 1 nach Beispiel 1, supernatant
Method: Um das Auswaschen der verschiedenen Farbstoffe in den Kunststofffolien zu beurteilen, wurde ein Immersionstest in deionisiertem Wasser mit einem pH-Wert von (6 ± 1) (oder gegebenenfalls anderen Lösungsmitteln) und einer Wassertemperatur von (22 ± 3) °C für 24 Stunden durchgeführt.
Dazu wurde ein Folienstück definierter Größe (3 cm x 3 cm) imprägniert (nach Rezeptur 1, Beispiel 1) und anschließend für 24 Stunden in eine definierte Menge deionisiertem Wasser (12,0 mL) gegeben und durch eine Schüttelplatte in Bewegung gehalten. Nach der angegeben Immersionszeit wurde die Folie entnommen und der Überschuss im UV-VIS Spektrometer vermessen, um die ausgewaschene Menge an Farbstoff zu bestimmen. Die Menge wird durch die definierte Größe der Folie und definierte Flüssigkeitsmenge auf einen Quadratzentimeter zurückgerechnet.
Dieser Immersionstest diente dazu, das Auswaschverhalten verschiedener Farbstoffe aus verschiedenen Kunststofffolien zu beurteilen. Weiter sollte er dabei helfen, verschiedene Farbstoffklassen oder verschiedene Farbstoffderivate einer Farbstoffklasse bezüglich dieser Charakteristik miteinander zu vergleichen.
Die zugeschnittenen Folien werden in einem geeigneten Behälter vollständig mit dem Prüfmedium (typischerweise deionisiertes Wasser) bedeckt. Anschließend wird der Behälter zugedeckt und auf die Schüttelplatte aufgebracht. Bei geringer Geschwindigkeit der Platte wird für 24 Stunden gewartet. Nach der Immersion wurden 3 mL des Überstandes durch Absorptionsspektroskopie vermessen.
Die Auswertung erfolgte über das Verhältnis der max. Absorptionswerte einer reinen Farbstofflösung definierter Konzentration und des vermessenen Überstandes. Die Ergebnisse sind in Tabelle 50 dargestellt. Tabelle 50: Auswaschverhalten verschiedener Photokatalysatoren nach Immersionstest A

E.coli 10536 = test: Antibacterial activity of impregnated films, modified ISO 22196 with illumination (Beispiel 12); format: cell-based; settings: TPU Folie, Rezeptur 1, 1 mM F-24b; Licht 20mW/cm2 für 10min; Gram-negativ
Description: (§1) Die Bestimmung der antimikrobiellen Aktivität erfolgte nach einer modifizierten Version der ISO 22196:2011-08 ("Messung von antibakterieller Aktivität auf Kunststoff- und anderen porenfreien Oberflächen", Ausgabedatum: 2011-08).
(§2) Bei der Testdurchführung wurde ein dünner Flüssigkeitsfilm, in dem die Bakterien enthalten sind (1,25 x 10^4 /cm^2), direkt auf die Probenkörper (3 x 3 cm) aufgebracht. Direkt nach Beimpfung wurden von der Nullprobe die Bakterien von den Probenkörperoberflächen mittels Ultraschall und Vortexen abgelöst und die Keimzahl (KBE (engl. CFU), Kolonie-bildende Einheit) bestimmt (t0-Wert).
(§3) Nach 4h wurden überlebende Bakterien von den Probenkörperoberflächen mittels Ultraschall und Vortexen abgelöst und die Keimzahl bestimmt (t4-Wert).
(§4) Im Unterschied zu der in der ISO 22196:2011-08 beschreibenen Methode wurde das Inokulum nicht mit einer Folie abgedeckt und die Inkubationszeit wurde von 24 auf 4 Stunden reduziert. Weiterhin wurden die Probenkörper der Proben 3 und 4 mit Licht der Intensität 20mW/cm2 für 10min belichtet, um eine biozide Wirkung nach Bestrahlung mit elektromagnetischer Strahlung zu bestimmen.
(§5) Verwendet wurden TPU Folienstücke, die nach dem in Beispiel 4 beschriebenen Verfahren mit Rezeptur 1 behandelt wurden. Rezeptur 1 wurde hergestellt nach Beispiel 2. […] Der Test wurde in Anlehnung an ISO 22196 nach oben beschriebener Methode durchgeführt.

Acinetobacter pitii = test: as above; format: cell-based; settings: TPU Folie, Rezeptur 1, 1 mM F-24b; Licht 20mW/cm2 für 10min; Gram-negativ
Description: as §1, §2, §3, §4, §5

S.enterica = test: as above; format: cell-based; settings: TPU Folie, Rezeptur 1, 1 mM F-24b; Licht 20mW/cm2 für 10min; Gram-negativ
Description: as §1, §2, §3, §4, §5

[4] = medium 5% Neutralseife, plastic PVC
[5] = medium 5% Neutralseife, plastic TPU

CC(C)(O)c1cc[n+](CC2=Cc3cccc4cccc(c34)C2=O)cc1 [F-24b]
Imprägnierung / Färbung der Folie [1]: mit den vorherigen Daten vergleichbar
Abs. vor Auswaschen ([2]; Washability test C (DIN EN ISO 11998), film before test): 0,121
Berechneter Verlust in % ([2]; Washability test C, 200 sponge cycles, 5 Gew.-% Incidin Plus Lösung): 1,7%
Abs. nach Auswaschen ([2]; Washability test C, film after 200 sponge cycles, 135g, 5 Gew.-% Incidin Plus Lösung): 0,119
Log10 Reduktion Hauptprobe (verschiedene Virusstämme; Virus: Influenza A Virus (H1N1)): 2,5 ± 0,5 log10
Log10 Reduktion Hauptprobe (verschiedene Virusstämme; Virus: Modified Vaccinia Virus Ankara (MVA)): 4,6 ± 0,6 log10
Berechneter Verlust in % [3, 4]: 3,8%
Abs. nach Auswaschen [3, 4]: 0,024
Berechneter Verlust in % [3, 5]: 10,7%
Abs. nach Auswaschen [3, 5]: 0,061
Berechneter Verlust in % ([3]; medium 70% IPA, plastic PVC): 25,4%
Abs. nach Auswaschen ([3]; medium 70% IPA, plastic PVC): 0,160
Berechneter Verlust in % ([3]; medium 70% IPA, plastic TPU): 34,0%
Abs. nach Auswaschen ([3]; medium 70% IPA, plastic TPU): 0,194
Berechneter Verlust in % ([3]; medium Wasser, plastic EVA): 2,6%
Abs. nach Auswaschen ([3]; medium Wasser, plastic EVA): 0,015
Berechneter Verlust in % ([3]; medium Wasser, plastic SEPS): 4,7%
Abs. nach Auswaschen ([3]; medium Wasser, plastic SEPS): 0,027
Berechneter Verlust in % ([3]; medium Wasser, plastic TPU): 1,4%
Abs. nach Auswaschen ([3]; medium Wasser, plastic TPU): 0,008
Log10 Reduktion Hauptprobe (E.coli 10536): 4,8 ± 0,4 log10
Log10 Reduktion Hauptprobe (Acinetobacter pitii): 3,0 ± 0,7 log10
Log10 Reduktion Hauptprobe (S.enterica): 4,2 ± 0,6 log10
